Test results taken from US6706664B1, “Benzoxazole compounds, process for the preparation thereof and herbicides” (UBE Industries, Ltd., priority 1999, dated 2004).

Assays:
Design in all cases: key: 0: normal development; 1: Less damaged; 2: Slightly damaged; 3: Moderately damaged; 4: Severely damaged; 5: All killed
livid amaranth = assay: Soil treatment test for upland field; assay type: in vivo, Amaranthus lividus; conditions: 500 g/ha, glass house 25° C., 3 weeks
In short: (§1)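 Visual 0–5 damage rating recorded 3 weeks after a pre-emergence soil spray of 500 g/ha on seeded Ube alluvial soil, with plants held in a glasshouse near 25° C.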

flat sedge = assay: Herbicidal test for paddy field; assay type: in vivo, Cyperus serotinus; conditions: paddy field pot, 500 g/ha dropwise at 1.5 leaf stage of barnyardgrass, 3 weeks, rank vs non-treated
Procedure: Wagner pots, each having an area of 1/5000 are, were packed with Ube soil (alluvial soil) and planted with seeds or tubers of young rice plant, barnyardgrass, bulrush, flat sedge and monochoria. Then, the pots were filled with water to a depth of 3 cm.
Each wettable powder of the desired compounds (I) shown in Table 1 prepared in accordance with Example 2 was diluted with water containing a surfactant (0.05%) and subjected to dropwise addition treatment by using pipet so that an effective concentration of the compound (I) in each herbicide became 500 g/ha at 1.5 leaf stage of barnyardgrass.
These plants were controlled in a glass house at an average temperature of 25° C. for 3 weeks, and then herbicidal effects thereof were investigated.
The herbicidal effects are evaluated according to the following 6 ranks as compared with non-treated district.
(0: normal development, 1: Less damaged, 2: Slightly damaged, 3: Moderately damaged, 4: Severely damaged, 5: All killed).

barnyardgrass [1] = assay: Herbicidal test for paddy field; assay type: in vivo, Echinochloa crusgalli; conditions: paddy field pot, 500 g/ha dropwise at 1.5 leaf stage of barnyardgrass, 3 weeks, rank vs non-treated
In short: (§2)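 Scores run on a six-point scale from 0 for normal development to 5 for all plants killed, judged against non-treated pots. Plants were grown in Ube soil under 3 cm of standing water and treated by pipet with 500 g/ha of the compound once barnyardgrass had 1.5 leaves. Assessment followed 3 weeks in a glasshouse averaging 25° C.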

soybean = assay: Soil treatment test for upland field; assay type: in vivo; conditions: 500 g/ha, glass house 25° C., 3 weeks
In short: as §1

wheat = assay: Soil treatment test for upland field; assay type: in vivo; conditions: 500 g/ha, glass house 25° C., 3 weeks
In short: as §1

solgum = assay: Soil treatment test for upland field; assay type: in vivo; conditions: 500 g/ha, glass house 25° C., 3 weeks
In short: as §1

corn = assay: Soil treatment test for upland field; assay type: in vivo; conditions: 500 g/ha, glass house 25° C., 3 weeks
In short: as §1

sugar beat = assay: Soil treatment test for upland field; assay type: in vivo; conditions: 500 g/ha, glass house 25° C., 3 weeks
In short: as §1

barnyardgrass [2] = assay: Soil treatment test for upland field; assay type: in vivo, Echinochloa crusgalli; conditions: 500 g/ha, glass house 25° C., 3 weeks
In short: as §1

Large crabgrass = assay: Soil treatment test for upland field; assay type: in vivo, Digitaria adscendens; conditions: 500 g/ha, glass house 25° C., 3 weeks
In short: as §1

common lambsquartes = assay: Soil treatment test for upland field; assay type: in vivo, Chenopodium album; conditions: 500 g/ha, glass house 25° C., 3 weeks
In short: as §1

bulrush = assay: Herbicidal test for paddy field; assay type: in vivo, Scrips juncoides; conditions: paddy field pot, 500 g/ha dropwise at 1.5 leaf stage of barnyardgrass, 3 weeks, rank vs non-treated
In short: as §2

green foxtail = assay: Soil treatment test for upland field; assay type: in vivo, Setaria viridis; conditions: 500 g/ha, glass house 25° C., 3 weeks
In short: as §1

monochoria = assay: Herbicidal test for paddy field; assay type: in vivo, Monochoria vaginalis; conditions: paddy field pot, 500 g/ha dropwise at 1.5 leaf stage of barnyardgrass, 3 weeks, rank vs non-treated
In short: as §2

annual bluegrass = assay: Soil treatment test for upland field; assay type: in vivo, Poa annua; conditions: 500 g/ha, glass house 25° C., 3 weeks
In short: as §1

blackgrass = assay: Soil treatment test for upland field; assay type: in vivo, Alopecurus aegualis; conditions: 500 g/ha, glass house 25° C., 3 weeks
In short: as §1

young rice plant = assay: Herbicidal test for paddy field; assay type: in vivo; conditions: paddy field pot, 500 g/ha dropwise at 1.5 leaf stage of barnyardgrass, 3 weeks, rank vs non-treated
In short: as §2

velvetleaf = assay: Soil treatment test for upland field; assay type: in vivo, Abutilon theophrasti; conditions: 500 g/ha, glass house 25° C., 3 weeks
In short: as §1

cotton = assay: Soil treatment test for upland field; assay type: in vivo; conditions: 500 g/ha, glass house 25° C., 3 weeks
In short: as §1

| SMILES | Effects Livid amaranth (livid amaranth) | Effect Flat sedge (flat sedge) | Effect Barnyardgrass (barnyardgrass [1]) | Effects Soybean (soybean) | Effects Wheat (wheat) | Effects Solgum (solgum) | Effects Corn (corn) | Effects Sugar beat (sugar beat) | Effects Barnyardgrass (barnyardgrass [2]) | Effects Large crabgrass (Large crabgrass) | Effects Common lambsquarters (common lambsquartes) | Effect Bulrush (bulrush) | Effects Green foxtail (green foxtail) | Effect Monochoria (monochoria) | Effects Annual bluegrass (annual bluegrass) | Effects Blackgrass (blackgrass) | Effect Young rice plant (young rice plant) | Effects Velvetleaf (velvetleaf) | Effects Cotton (cotton) |
| --- | --- | --- | --- | --- | --- | --- | --- | --- | --- | --- | --- | --- | --- | --- | --- | --- | --- | --- | --- |
| CCC(Oc1cccc(OC(F)(F)F)c1)c1nc2cc(C#N)ccc2o1 (stereo not shown) [Compound 396] | 5 | 5 | 2 | 2 | 2 | 3 | 2 | 5 | 5 | 5 | 5 | 5 | 5 | 5 | 5 | 5 | 2 | 5 | – |
| CCC(Oc1ccc(F)c(C(F)(F)F)c1)c1nc2cc(C#N)ccc2o1 (stereo not shown) [Compound 189] | – | 5 | 5 | – | – | – | – | – | – | – | – | 5 | – | 5 | – | – | 2 | – | – |
| CCC(Oc1cccc(C#N)c1)c1nc2cc(C#N)ccc2o1 (stereo not shown) [Compound 392] | 5 | 5 | 5 | 0 | 0 | 5 | 1 | 2 | 2 | 5 | 3 | 5 | 5 | 5 | 4 | – | 0 | – | 0 |
| CCCC(Oc1cccc(C#N)c1)c1nc2cc(C#N)ccc2o1 (stereo not shown) [Compound 393] | – | 5 | 4 | – | – | – | – | – | – | – | – | 5 | – | 5 | – | – | 0 | – | – |
| CCCC(Oc1ccc(F)c(C(F)(F)F)c1)c1nc2cc(C#N)c(F)cc2o1 (stereo not shown) [Compound 348] | – | 4 | 4 | – | – | – | – | – | – | – | – | 4 | – | 5 | – | – | 2 | – | – |
| CC(Oc1cccc(C(F)(F)F)c1)c1nc2cc(Cl)ccc2o1 (stereo not shown) [Compound 138] | 5 | 3 | 2 | 0 | 0 | 0 | 0 | – | 1 | 4 | 3 | 2 | 2 | 3 | 3 | 5 | 0 | – | 0 |
